The text below walks through data of patent US9023789B2, “Amylin analogs and pharmaceutical compositions thereof” (Novo Nordisk A/S, priority 2012, dated 2015).

Each structure is given as a SMILES string. Numbered stars: 1 amine (or outer) side, 2 acyl side, 3 side chain; on linkers, the order of the positions; unused ones are H or OH. Bridge positions count the residues as written; N and C are the ends. Side chains are listed from the residue outwards. Peptide text beside a SMILES is read from it. * marks the point of attachment. C20 diacid = O=C(O)CCCCCCCCCCCCCCCCCCC(=O)*; γGlu = O=C(O)[C@H](CCC(=O)[*:2])N[*:1]; AEEA = NCCOCCOCC(=O)O

In data set [1] the target is T1, human amylin receptor (membranes from Amylin 3(a)/CRE-luc cells) (Homo sapiens, UniProt O60896+P30988).
T1 construct: expressed in transfected cells
T1 sequence (P30988 25-474): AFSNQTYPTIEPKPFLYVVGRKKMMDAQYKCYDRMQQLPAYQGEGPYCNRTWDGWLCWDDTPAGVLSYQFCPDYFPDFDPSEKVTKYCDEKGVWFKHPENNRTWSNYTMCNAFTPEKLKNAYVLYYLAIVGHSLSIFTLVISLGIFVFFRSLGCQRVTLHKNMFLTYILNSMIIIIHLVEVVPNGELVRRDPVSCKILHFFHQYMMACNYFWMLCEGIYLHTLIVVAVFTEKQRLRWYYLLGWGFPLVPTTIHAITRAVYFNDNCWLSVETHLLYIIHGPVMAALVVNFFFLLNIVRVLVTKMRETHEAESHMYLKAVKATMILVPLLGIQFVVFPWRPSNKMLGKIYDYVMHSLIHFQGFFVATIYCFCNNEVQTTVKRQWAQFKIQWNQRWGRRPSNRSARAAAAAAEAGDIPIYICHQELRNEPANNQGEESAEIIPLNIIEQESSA
T1 sequence (O60896 24-148 partner): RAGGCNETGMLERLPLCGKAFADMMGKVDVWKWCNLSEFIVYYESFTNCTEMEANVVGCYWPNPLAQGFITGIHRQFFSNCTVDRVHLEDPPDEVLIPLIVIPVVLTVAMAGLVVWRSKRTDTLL
The data set is described as follows: ASSAY (V) binding to the human amylin receptor (SPA, 125I-rat amylin).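 On all read-outs here: competition binding of cell membranes (35 ng/µL) mixed with SPA beads in 384-well plates at 40 µL total volume, read by scintillation counting.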 To be noted: for IC50: Table 4, read-out: hAmylin-R bind IC50.

Data set [2] deals with T2, human amylin 3(a) receptor (human calcitonin receptor + RAMP-3) in BHK570 cells (Homo sapiens, UniProt O60896+P30988).
T2 construct: expressed in transfected cells
Put plainly: ASSAY (II)a functional assay, human amylin receptor (CRE luciferase). Particulars: for EC50: human amylin receptor functional potency, assay (II), read-out: hAmylin-R funct. EC50. Format: cell-based. An outline of the steps: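 Functional agonism was measured by CRE-luciferase reporter luminescence in BHK cells bearing calcitonin receptor, or calcitonin receptor plus RAMP-3 as the amylin 3(a) receptor. Stimulation lasted 3 hours at 37° C.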

The nature of data set [3]: ASSAY (III) ThT fibrillation assay for physical stability. The class given is physicochemical. Put shortly: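 Physical stability scored by ThT fluorescence (444 nm excitation, 485 nm emission) tracked every 20 min during 37 °C incubation with 960 rpm shaking, ThT at 1 μM final. Values are replicate means with SD at chosen times; HPLC against pramlintide standard gives initial and post-assay soluble concentrations.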

Setting [4] is: Table 5, selectivity, hCTR bind IC50 / hAmylin-R bind IC50.
Setting [5] is: Table 5a, selectivity, hCTR bind IC50 / hAmylin-R bind IC50.
Where [6] appears, read: Table 5b, selectivity, hCTR bind IC50 / hAmylin-R bind IC50.
Setting [7] is: Table 5c, selectivity, hCTR bind IC50 / hAmylin-R bind IC50.
The mark [8] stands for this setting: Table 7, human binding selectivity, included for comparison.
Setting [9] is: Table 7a (preferred compounds), human binding selectivity, included for comparison.
Setting [10] is: ratio of human calcitonin receptor binding IC50 to human amylin receptor binding IC50.
[11] abbreviates: hCTR funct. EC50 divided by hAmylin-R funct. EC50.
Where [12] appears, read: hCTR funct. EC50 over hAmylin-R funct. EC50.
Setting [13] is: human functional selectivity: hCTR funct. EC50 / hAmylin-R funct. EC50.

In the case of `CC[C@H](C)[C@H](NC(=O)[C@H](C)NC(=O)CNC(=O)[C@H](Cc1ccccc1)NC(=O)[C@H](CC(N)=O)NC(=O)[C@@H]1CCCN1C(=O)[C@H](CO)NC(=O)[C@H](CO)NC(=O)[C@H](Cc1c[nH]cn1)NC(=O)[C@H](CCCNC(=N)N)NC(=O)[C@H](CC(C)C)NC(=O)[C@H](Cc1ccccc1)NC(=O)[C@H](CC(N)=O)NC(=O)[C@H](C)NC(=O)[C@H](CC(C)C)NC(=O)[C@H](CCCNC(=N)N)NC(=O)[C@H](CCC(N)=O)NC(=O)[C@@H](NC(=O)[C@H](C)NC(=O)[C@@H]1CSSC[C@H](NC(=O)[C@@H](N)CCCCNC(=O)CC[C@H](NC(=O)CCCCCCCCCCCCCCCCCCC(=O)O)C(=O)O)C(=O)N[C@@H](CC(N)=O)C(=O)N[C@@H]([C@@H](C)O)C(=O)N[C@@H](C)C(=O)N[C@@H]([C@@H](C)O)C(=O)N1)[C@@H](C)O)C(=O)N1CCC[C@H]1C(=O)N[C@@H](CO)C(=O)N[C@@H](CO)C(=O)N[C@H](C(=O)N[C@@H](CC(N)=O)C(=O)N[C@H](C(=O)NCC(=O)N[C@@H](CO)C(=O)N[C@@H](CC(N)=O)C(=O)N[C@H](C(=O)N[C@@H](Cc1ccc(O)cc1)C(N)=O)[C@@H](C)O)C(C)C)[C@@H](C)O` [Example 48], in data set [1], the IC50 is 0.443 nM. Moreover, the “Ratio hCT/hAmylin binding” value in data set [1] (setting [4]), in data set [1] (setting [5]), in data set [1] (setting [6]), in data set [1] (setting [7]), in data set [1] (setting [8]) and in data set [1] (setting [9]) was 69.7 throughout. The “Ratio hCT/hAmylin binding” value in data set [1] (setting [10]) amounted to 69.7. Besides, the “Ratio hCT/hAmylin funct.” value in data set [2] (setting [11]), in data set [2] (setting [12]) and in data set [2] (setting [13]) was 17.0 in each case. Besides, in data set [2], the EC50 stood at 0.116 nM. In addition, in data set [3], the “ThT pH 4.0 lag time (h)” value turned out to be 25 h.

On to `CC[C@H](C)[C@H](NC(=O)[C@H](C)NC(=O)CNC(=O)[C@H](Cc1ccccc1)NC(=O)[C@H](CC(N)=O)NC(=O)[C@@H]1CCCN1C(=O)[C@H](CO)NC(=O)[C@H](CO)NC(=O)[C@H](Cc1c[nH]cn1)NC(=O)[C@H](CCCNC(=N)N)NC(=O)[C@H](CC(C)C)NC(=O)[C@H](Cc1ccccc1)NC(=O)[C@H](CC(N)=O)NC(=O)[C@H](C)NC(=O)[C@H](CC(C)C)NC(=O)[C@H](CCCNC(=N)N)NC(=O)[C@H](CCC(N)=O)NC(=O)[C@@H](NC(=O)[C@H](C)NC(=O)[C@@H]1CSSC[C@H](NC(=O)[C@@H](N)CCCCNC(=O)COCCOCCNC(=O)CC[C@H](NC(=O)CCCCCCCCCCCCCCCCCCC(=O)O)C(=O)O)C(=O)N[C@@H](CC(N)=O)C(=O)N[C@@H]([C@@H](C)O)C(=O)N[C@@H](C)C(=O)N[C@@H]([C@@H](C)O)C(=O)N1)[C@@H](C)O)C(=O)N1CCC[C@H]1C(=O)N[C@@H](CO)C(=O)N[C@@H](CO)C(=O)N[C@H](C(=O)N1CCC[C@H]1C(=O)N[C@H](C(=O)NCC(=O)N[C@@H](CO)C(=O)N[C@@H](CC(N)=O)C(=O)N[C@H](C(=O)N[C@@H](Cc1ccc(O)cc1)C(N)=O)[C@@H](C)O)C(C)C)[C@@H](C)O` [Example 49], for which the “Ratio hCT/hAmylin binding” value in data set [1] (setting [4]), in data set [1] (setting [5]), in data set [1] (setting [8]), in data set [1] (setting [9]) and in data set [1] (setting [10]) was 10.8 in each case. Moreover, the “Ratio hCT/hAmylin funct.” value in data set [2] (setting [11]), in data set [2] (setting [12]) and in data set [2] (setting [13]) was 22.5 each time. Besides, in data set [3], the “ThT pH 4.0 lag time (h)” value was found to be 8 h.

As to `CC[C@H](C)[C@H](NC(=O)[C@H](C)NC(=O)CNC(=O)[C@H](Cc1ccccc1)NC(=O)[C@H](CC(N)=O)NC(=O)[C@@H]1CCCN1C(=O)[C@H](CO)NC(=O)[C@H](CO)NC(=O)[C@H](Cc1c[nH]cn1)NC(=O)[C@H](CCCNC(=N)N)NC(=O)[C@H](CC(C)C)NC(=O)[C@H](Cc1ccccc1)NC(=O)[C@H](CC(N)=O)NC(=O)[C@H](C)NC(=O)[C@H](CC(C)C)NC(=O)[C@H](CCCNC(=N)N)NC(=O)[C@H](CCC(N)=O)NC(=O)[C@@H](NC(=O)[C@H](C)NC(=O)[C@@H]1CSSC[C@H](NC(=O)[C@@H](N)CCCCNC(=O)COCCOCCNC(=O)CC[C@H](NC(=O)CCCCCCCCCCCCCCCCCCC(=O)O)C(=O)O)C(=O)N[C@@H](CC(N)=O)C(=O)N[C@@H]([C@@H](C)O)C(=O)N[C@@H](C)C(=O)N[C@@H]([C@@H](C)O)C(=O)N1)[C@@H](C)O)C(=O)N1CCC[C@H]1C(=O)N[C@@H](CO)C(=O)N[C@@H](CO)C(=O)N[C@H](C(=O)N[C@@H](CC(N)=O)C(=O)N[C@H](C(=O)NCC(=O)N1CCC[C@H]1C(=O)N[C@@H](CC(N)=O)C(=O)N[C@H](C(=O)N[C@@H](Cc1ccc(O)cc1)C(N)=O)[C@@H](C)O)C(C)C)[C@@H](C)O` [Example 50], in data set [1], the IC50 stood at 0.038 nM. Moreover, the “Ratio hCT/hAmylin binding” value in data set [1] (setting [4]), in data set [1] (setting [5]), in data set [1] (setting [6]), in data set [1] (setting [7]), in data set [1] (setting [8]) and in data set [1] (setting [9]) was 36.0 each time. Also, in data set [1] (setting [10]), the “Ratio hCT/hAmylin binding” value was found to be 36.0. In addition, the “Ratio hCT/hAmylin funct.” value in data set [2] (setting [11]), in data set [2] (setting [12]) and in data set [2] (setting [13]) was 17.4 throughout. Besides, in data set [2], the EC50 amounted to 0.038 nM. In data set [3], the “ThT pH 4.0 lag time (h)” value came out at 2 h.

Take `CC[C@H](C)[C@H](NC(=O)[C@H](C)NC(=O)CNC(=O)[C@H](Cc1ccccc1)NC(=O)[C@H](CC(N)=O)NC(=O)[C@@H]1CCCN1C(=O)[C@H](CO)NC(=O)[C@H](CO)NC(=O)[C@H](Cc1c[nH]cn1)NC(=O)[C@H](CCCNC(=N)N)NC(=O)[C@H](CC(C)C)NC(=O)[C@H](Cc1ccccc1)NC(=O)[C@H](CC(N)=O)NC(=O)[C@H](C)NC(=O)[C@H](CC(C)C)NC(=O)[C@H](CCCNC(=N)N)NC(=O)[C@H](CCC(N)=O)NC(=O)[C@@H](NC(=O)[C@H](C)NC(=O)[C@@H]1CSSC[C@H](NC(=O)[C@@H](N)CCCCNC(=O)COCCOCCNC(=O)CC[C@H](NC(=O)CCCCCCCCCCCCCCCCCCC(=O)O)C(=O)O)C(=O)N[C@@H](CC(N)=O)C(=O)N[C@@H]([C@@H](C)O)C(=O)N[C@@H](C)C(=O)N[C@@H]([C@@H](C)O)C(=O)N1)[C@@H](C)O)C(=O)N1CCC[C@H]1C(=O)N1CCC[C@H]1C(=O)N[C@@H](CO)C(=O)N[C@H](C(=O)N1CCC[C@H]1C(=O)N[C@H](C(=O)NCC(=O)N[C@@H](CO)C(=O)N[C@@H](CC(N)=O)C(=O)N[C@H](C(=O)N[C@@H](Cc1ccc(O)cc1)C(N)=O)[C@@H](C)O)C(C)C)[C@@H](C)O` [Example 53] (H-K([AEEA-γGlu-C20 diacid])CNTATCATQRLANFLRHSSPNFGAIPPSTPVGSNTY-NH2; disulfide 2-7; N-terminus assumed): the “Ratio hCT/hAmylin binding” value in data set [1] (setting [4]), in data set [1] (setting [5]), in data set [1] (setting [6]), in data set [1] (setting [7]), in data set [1] (setting [8]) and in data set [1] (setting [9]) was 103.5 each time. Also, in data set [1] (setting [10]), the “Ratio hCT/hAmylin binding” value came out at 103.5. Moreover, the “Ratio hCT/hAmylin funct.” value in data set [2] (setting [11]) and in data set [2] (setting [13]) was 9.8 each time. Moreover, the “ThT pH 4.0 lag time (h)” value in data set [3] is listed as 18 h.
